Three compounds from patent US20150031656A1, “COMBINATION THERAPY FOR TREATING ANDROGEN DEFICIENCY” (REPROS THERAPEUTICS INC., priority 2012, published 2015) can be followed below.

“And” between values parts separate entries of the source, which are not always exact repeats. Equal values may be shown once. Where a name gives a salt, the structure may show the parent alone. Read-outs that look alike come from different tables or passages of the source.

One series relates to total serum testosterone. The conditions noted are these: for effect on total serum testosterone (in words): baboons; for effect on total serum testosterone (in words) / Serum Testosterone Levels, 12 days, group mean: 1.5 mg/kg for 12 days; for Serum Testosterone Levels, 6 days / Serum Testosterone Levels, 12 days / Serum Testosterone Levels, wash-out / Serum Testosterone Levels, baseline / Serum Testosterone Levels, 0 day: individual baboon; for Serum Testosterone Levels, 6 days / Serum Testosterone Levels, 6 days, group mean: 1.5 mg/kg daily, day 6; for Serum Testosterone Levels, 6 days / Serum Testosterone Levels, 12 days: 1.5 mg/kg; for Serum Testosterone Levels, 12 days: 1.5 mg/kg for 12 consecutive days; for Serum Testosterone Levels, 12 days / Serum Testosterone Levels, 12 days, group mean: day 12; for Serum Testosterone Levels, wash-out / Serum Testosterone Levels, wash-out, group mean: 7 days after the last treatment; for Serum Testosterone Levels, baseline: baseline Dec. 3, 2001, before treatment; for Serum Testosterone Levels, 0 day / Serum Testosterone Levels, 0 day, group mean: day 0, before first dose; for Serum Testosterone Levels, 6 days, group mean / Serum Testosterone Levels, 12 days, group mean / Serum Testosterone Levels, wash-out, group mean / Serum Testosterone Levels, baseline, group mean / Serum Testosterone Levels, 0 day, group mean: mean of 3 baboons; for Serum Testosterone Levels, baseline, group mean: before treatment.

The test system of another series is serum cholesterol. Particulars: baboons, 1.5 mg/kg for 12 days.
In another series the test system is serum prolactin (PRL). As to the kind of experiment: Serum prolactin in male baboons. Particulars: 1.5 mg/kg for 12 days.

Excerpt for serum prolactin (PRL): (§1) The samples analyzed were sera taken on the day of first treatment before being given test article (day 0), after 12 days of treatment (day 12) and 7 days after the last treatment (end or wash-out).
Excerpt for total serum testosterone: as §1

On to `CCN(CC)CCOc1ccc(C(=C(Cl)c2ccccc2)c2ccccc2)cc1` [Clomid, clomiphene citrate], for which, in the series with total serum testosterone, the “effect on total serum testosterone (in words)” value was “more variable total testosterone levels on day 6 and later”; the “Serum Testosterone Levels, 6 days, group mean” value was 559.3 ng/dL; the “Serum Testosterone Levels, 12 days, group mean” value worked out at 588.7 ng/dL; the “Serum Testosterone Levels, wash-out, group mean” value amounted to 203.6 ng/dL. In the series on total serum testosterone, the “Serum Testosterone Levels, baseline, group mean” value was determined as 111.5 ng/dL and the “Serum Testosterone Levels, 0 day, group mean” value turned out to be 161.4 ng/dL. In the series with total serum testosterone (listed as CLO), the “Serum Testosterone Levels, 6 days” value was 940.97 ng/dL and 585.92 ng/dL and 151.12 ng/dL; the “Serum Testosterone Levels, 12 days” value was 891.5 ng/dL and 555.6 ng/dL and 318.9 ng/dL; the “Serum Testosterone Levels, wash-out” value was 150.9 ng/dL and 316.3 ng/dL and 143.6 ng/dL; the “Serum Testosterone Levels, baseline” value is 79.01 ng/dL and 97.55 ng/dL and 158.06 ng/dL. The “Serum Testosterone Levels, 0 day” value with total serum testosterone (listed as CLO) is 76.15 ng/dL and 305.24 ng/dL and 102.94 ng/dL. The “effect on serum cholesterol levels (in words)” value in the series with serum cholesterol is “slight increase”. In addition, for the setting “in vivo”, the ALT/SGPT entry is listed as “out of range low at the end of the study”; the “BUN and BUN/creatinine” value is reported as “altered during the study”; the serum carbon dioxide entry was “higher than reference values”. Besides, where the note is “in vivo, 1.5 mg/kg”, the serum glucose result is given as “within the normal range”.

`CCN(CC)CCOc1ccc(/C(=C(/Cl)c2ccccc2)c2ccccc2)cc1` [Enclomid, trans-Clomid]: in the series on total serum testosterone, the “effect on total serum testosterone (in words)” value is “significantly and statistically raised total serum testosterone on days 6 and 12”; the “Serum Testosterone Levels, 6 days” value is 1223.8 ng/dL and 1128.2 ng/dL and 1081.1 ng/dL; the “Serum Testosterone Levels, 12 days” value is 633.6 ng/dL and 1466 ng/dL and 1166 ng/dL; the “Serum Testosterone Levels, wash-out” value was 307.2 ng/dL and 399.2 ng/dL and 271 ng/dL. In the series with total serum testosterone, the “Serum Testosterone Levels, baseline” value was 64.57 ng/dL and 166.86 ng/dL and 170.45 ng/dL; the “Serum Testosterone Levels, 0 day” value is 74.96 ng/dL and 133.59 ng/dL and 106.47 ng/dL; the “Serum Testosterone Levels, 6 days, group mean” value was 1144.4 ng/dL; the “Serum Testosterone Levels, 12 days, group mean” value came to 1088.5 ng/dL. Moreover, in the series on total serum testosterone, the “Serum Testosterone Levels, wash-out, group mean” value was determined as 325.8 ng/dL; the “Serum Testosterone Levels, baseline, group mean” value was determined as 134.0 ng/dL; the “Serum Testosterone Levels, 0 day, group mean” value worked out at 105.0 ng/dL. Besides, the “decrease in serum cholesterol levels” value with serum cholesterol is reported as 8%. Also, where the note is “in vivo”, the ALT/SGPT result is “within the normal range”; the “BUN and BUN/creatinine” value is recorded as “altered during the study”; the “per cent of granulocytes in the blood” value is “lowering the per cent of granulocytes in the blood”; the platelet count entry is reported as “pushed the platelet count to its normal male level”. Moreover, for the setting “in vivo”, the “serum alkaline phosphatase (ALP)” value was “decreased in value” and the serum anion gap entry is on record as “raised this parameter towards normal values”. For the same compound, under “in vivo, 1.5 mg/kg”, the “lymphocyte count and per cent lymphocytes” value is “Both the count and per cent lymphocytes in the population increase”; the “red blood cell population” value is recorded as “substantive effects on the red blood cell population”; the serum glucose entry is given as “no increases with treatment”. Besides, in the series with serum prolactin (PRL), the “serum prolactin (PRL) during the study” value was “decrease in serum prolactin (PRL)”.

Turning to `CCN(CC)CCOc1ccc(/C(=C(\Cl)c2ccccc2)c2ccccc2)cc1` [Zuclomid, cis-Clomid], in the series on total serum testosterone, the “effect on total serum testosterone (in words)” value is “did not raise total serum testosterone to any extent”; the “Serum Testosterone Levels, 6 days” value was 137.51 ng/dL and 169.98 ng/dL and 227.95 ng/dL; the “Serum Testosterone Levels, 12 days” value is 314.5 ng/dL and 406.1 ng/dL and 353.0 ng/dL; the “Serum Testosterone Levels, wash-out” value is 359.7 ng/dL and 860.5 ng/dL and 274.1 ng/dL. In the series on total serum testosterone, the “Serum Testosterone Levels, baseline” value was 124.84 ng/dL and 104.66 ng/dL and 282.29 ng/dL; the “Serum Testosterone Levels, 0 day” value was 210.4 ng/dL and 67.37 ng/dL and 904.82 ng/dL; the “Serum Testosterone Levels, 6 days, group mean” value was 178.5 ng/dL; the “Serum Testosterone Levels, 12 days, group mean” value was determined as 357.9 ng/dL. Further, in the series on total serum testosterone, the “Serum Testosterone Levels, wash-out, group mean” value amounted to 498.1 ng/dL; the “Serum Testosterone Levels, baseline, group mean” value was 170.6 ng/dL; the “Serum Testosterone Levels, 0 day, group mean” value stood at 394.2 ng/dL. Moreover, in the series on serum cholesterol, the “increase in serum cholesterol levels” value is listed as 22%. Where the note is “baboons, 1.5 mg/kg for 12 days”, the hematocrit result is “demonstrated a statistical difference”, the “red blood cell population” value was “substantive effects on the red blood cell population” and the serum glucose result is recorded as “within the normal range”. Also, where the note is “baboons, day 12”, the serum carbon dioxide result is given as “higher than reference values”. Moreover, the “serum alkaline phosphatase (ALP)” value (baboons, following treatment) is “not elevated”. Besides, the ALT/SGPT entry (baboons, over the treatment period / end of the study) is recorded as “within the normal range”.
